Data published in PMC12519282, “Reduction of Negative Charge in Mercaptoacetyl-Based Chelators Influences the Biodistribution of Prostate-Specific Membrane Antigen-Targeting Pseudopeptides Labeled with Technetium-99m” (ACS Pharmacology & Translational Science, 2025).
Like-named read-outs stand apart in the source and are kept apart here. Marks after values point to notes of the source that are not given here.

Key:
[1] = molecular target: T1, PSMA (Homo sapiens, UniProt Q04609); conditions: cited from earlier work
T1 construct: expressed in transfected cells; host or cells: PC3-pip (PSMA-transfected PC-3 prostate carcinoma cells), from Prof; Martin G. Pomper, Johns Hopkins University
T1 sequence (Q04609 whole entry): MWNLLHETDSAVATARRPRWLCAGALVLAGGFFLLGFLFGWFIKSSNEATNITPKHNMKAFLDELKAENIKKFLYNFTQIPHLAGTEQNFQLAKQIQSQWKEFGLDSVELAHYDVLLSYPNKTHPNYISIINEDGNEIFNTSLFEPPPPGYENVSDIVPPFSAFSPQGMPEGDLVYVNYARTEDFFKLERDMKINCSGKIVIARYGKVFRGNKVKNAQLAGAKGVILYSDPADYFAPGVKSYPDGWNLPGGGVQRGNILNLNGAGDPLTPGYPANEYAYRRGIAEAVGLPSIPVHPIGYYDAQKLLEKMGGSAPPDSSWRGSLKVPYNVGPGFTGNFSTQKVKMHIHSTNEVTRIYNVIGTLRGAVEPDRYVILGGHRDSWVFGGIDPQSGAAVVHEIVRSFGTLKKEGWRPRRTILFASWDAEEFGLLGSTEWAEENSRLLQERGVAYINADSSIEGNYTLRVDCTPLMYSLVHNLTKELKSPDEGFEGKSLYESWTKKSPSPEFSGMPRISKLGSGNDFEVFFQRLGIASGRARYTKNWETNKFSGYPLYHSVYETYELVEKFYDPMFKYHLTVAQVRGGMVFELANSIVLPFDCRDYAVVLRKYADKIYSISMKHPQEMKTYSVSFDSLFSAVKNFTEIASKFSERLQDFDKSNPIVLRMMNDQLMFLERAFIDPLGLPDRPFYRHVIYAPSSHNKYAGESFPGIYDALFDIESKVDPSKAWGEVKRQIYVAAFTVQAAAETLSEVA

[2] = system: PC3-pip xenografts; conditions: in vivo; cited from earlier work
[3] = system: PC3-pip xenografts; assay: biodistribution and tumor targeting in PC3-pip tumor-bearing mice; type: in vivo; conditions: PC3-pip tumor-bearing mice, 5 nmol/mouse iv
From the text: The injected masses for the in vivo experiments were chosen based on the findings for [^99mTc]-Tc-BQ0413: to study the general biodistribution of radiolabeled tracers in normal mice (NMRI), 40 pmol of tracer was used to avoid blocking of PSMA-mediated uptake in kidneys and salivary glands, to study tumor targeting, 5 nmol of tracer was used to decrease uptake in PSMA-expressing organs.
PSMA-expressing PCa xenografts were implanted in BALB/c nu/nu mice by subcutaneous injection of the PC3-pip cell suspension in PBS (10^7 cells/animal in 100 μL). The average animal weight in the experiment was 18 ± 2 g. The average tumor weight was 0.4 ± 0.2 g. For in vivo specificity control, 10^7 cells/animal PSMA-negative PC-3 cells were implanted. The average animal weight was 18 ± 1 g. The average tumor weight was 0.1 ± 0.1 g. Four mice per data point were used in the in vivo experiments.
For tumor-bearing mice, each mouse was intravenously injected with 5 nmol of [^99mTc]-Tc-BQ0413, [^99mTc]-Tc-BQ0500, and [^99mTc]-Tc-BQ0501 (60 kBq; the mass of the injected compound was adjusted with an unlabeled tracer). The mice were euthanized after lethal intraperitoneal injection of ketamine/xylazine, followed by exsanguination 1 and 3 h pi, similarly to the procedure described above.

[4] = physchem; type: physicochemical; conditions: pH 7.4
Procedure: To evaluate the label’s stability, 10 μL (0.25 μg) of radiolabeled conjugates was incubated with 300× molar excess of cysteine or with PBS for 1 h at room temperature. The test was run in triplicate. The release of free technetium-99m was controlled by using iTLC and radio-HPLC analysis. The stability in serum was analyzed by mixing the radioconjugates (0.25 μg in 10 μL) with murine serum or PBS (40 μL) as a control. The samples were incubated for 1 h at 37 °C and analyzed by iTLC. The experiment was performed in triplicate. The octanol–water distribution coefficient (Log D) was determined experimentally by the addition of 100 pmol of the radiolabeled tracer to an Eppendorf tube containing PBS (500 μL) and n-octanol (500 μL), pH ∼ 7.4. The solution was vortexed and centrifuged, and aliquots (50 μL) from each phase were collected and measured using a gamma counter. The experiment was performed in triplicate.

[5] = molecular target: T1, PSMA; assay: binding kinetics in real time on living PC3-pip cells (LigandTracer Yellow); conditions: 5 nM tracer, 1:2 model (1:1 for BQ0413)
Procedure: The binding kinetics of technetium-99m-labeled BQ0413, BQ0500, and BQ0501 were determined in PC3-pip cells in real-time using LigandTracer Yellow (Ridgeview Instruments AB, Uppsala, Sweden). The activity binding was recorded with 5 nM radiolabeled tracers for 150 min. After the binding kinetics were measured, the medium containing the labeled tracer was replaced with fresh medium, and the dissociation was monitored over 7 h. The association rate (k a) and the dissociation rate (k d) were computed using a 1:2 kinetic binding model in TraceDrawer software (Ridgeview Instruments AB, Uppsala, Sweden), and the equilibrium dissociation constant K D was calculated.

Structure (SMILES): O=C(O)CCc1ccc(O)c(CN(CCN(CC(=O)O)Cc2cc(CCC(=O)NCCCCCC(=O)NCCCC[C@H](NC(=O)N[C@@H](CCC(=O)O)C(=O)O)C(=O)O)ccc2O)CC(=O)O)c1 [PSMA-11]
- Kd ([1]; nonlabeled PSMA-11, ref 29 (inferred, citation mark not shown)): 0.5 ± 0.2 nM

Structure (SMILES): CC(=O)NC(CCCCNC(=O)CNC(=O)C(CCC(=O)O)NC(=O)C(CCC(=O)O)NC(=O)C(CCC(=O)O)NC(=O)CS)C(=O)NCCCCCCCC(=O)NC(Cc1ccc(O)cc1)C(=O)NC(Cc1ccc2ccccc2c1)C(=O)NCCCCC(NC(=O)NC(CCC(=O)O)C(=O)O)C(=O)O (stereo not shown) [[^99mTc]Tc-BQ0413, metal not drawn, reference compound]
- excretion pathway [2]: renal
- tumor uptake [2]: 33 ± 3%IA/g (3 h)
- tumor-to-blood ratio [2]: 314 ± 73 (3 h)
- activity in carcass ([3]; 1 h pi): 8 ± 2 ^b %IA/sample
- activity in intestines with content ([3]; 1 h pi): 1.7 ± 0.4 %IA/sample
- activity uptake in blood ([3]; 1 h pi): 1.0 ± 0.3 ^b %IA/g
- activity uptake in bone ([3]; 1 h pi): 0.9 ± 0.3 ^b %IA/g
- activity uptake in kidney ([3]; 1 h pi): 23 ± 3 ^b %IA/g
- activity uptake in liver ([3]; 1 h pi): 1.3 ± 0.4 ^b %IA/g
- activity uptake in lung ([3]; 1 h pi): 1.2 ± 0.2 ^b %IA/g
- activity uptake in muscle ([3]; 1 h pi): 0.3 ± 0.1 ^b %IA/g
- activity uptake in pancreas ([3]; 1 h pi): 0.6 ± 0.1 ^b %IA/g
- activity uptake in salivary gland ([3]; 1 h pi): 1.4 ± 0.2 ^b %IA/g
- activity uptake in small intestines ([3]; 1 h pi): 0.5 ± 0.1^b %IA/g
- activity uptake in spleen ([3]; 1 h pi): 1.9 ± 0.8 %IA/g
- activity uptake in stomach ([3]; 1 h pi): 1.5 ± 0.4 %IA/g
- activity uptake in tumor ([3]; 1 h pi): 19 ± 4 %IA/g
- tumor-to-blood ratio ([3]; 1 h pi): 22 ± 12 ^b
- tumor-to-bone ratio ([3]; 1 h pi): 27 ± 17 ^b
- tumor-to-kidney ratio ([3]; 1 h pi): 0.9 ± 0.3 ^b
- tumor-to-liver ratio ([3]; 1 h pi): 17 ± 9 ^b
- tumor-to-lung ratio ([3]; 1 h pi): 16 ± 5 ^b
- tumor-to-muscle ratio ([3]; 1 h pi): 62 ± 25 ^b
- tumor-to-pancreas ratio ([3]; 1 h pi): 38 ± 5 ^b
- tumor-to-salivary gland ratio ([3]; 1 h pi): 14 ± 3 ^b
- tumor-to-small intestines ratio ([3]; 1 h pi): 41 ± 17 ^b
- tumor-to-spleen ratio ([3]; 1 h pi): 9 ± 3 ^b
- tumor-to-stomach ratio ([3]; 1 h pi): 13 ± 2 ^b
- activity in carcass ([3]; 3 h pi): 1.7 ± 0.3 %IA/sample
- activity in intestines with content ([3]; 3 h pi): 1.7 ± 0.2 %IA/sample
- activity uptake in blood ([3]; 3 h pi): 0.17 ± 0.04 %IA/g
- activity uptake in bone ([3]; 3 h pi): 0.2 ± 0.1 %IA/g
- activity uptake in kidney ([3]; 3 h pi): 9 ± 2 %IA/g
- activity uptake in liver ([3]; 3 h pi): 0.3 ± 0.1 %IA/g
- activity uptake in lung ([3]; 3 h pi): 0.3 ± 0.1 %IA/g
- activity uptake in muscle ([3]; 3 h pi): 0.06 ± 0.02 %IA/g
- activity uptake in pancreas ([3]; 3 h pi): 0.13 ± 0.02 %IA/g
- activity uptake in salivary gland ([3]; 3 h pi): 0.5 ± 0.1 %IA/g
- activity uptake in small intestines ([3]; 3 h pi): 0.2 ± 0.1 %IA/g
- activity uptake in spleen ([3]; 3 h pi): 0.9 ± 0.5 %IA/g
- activity uptake in stomach ([3]; 3 h pi): 0.6 ± 0.2 %IA/g
- activity uptake in tumor ([3]; 3 h pi): 17 ± 3 %IA/g
- tumor-to-blood ratio ([3]; 3 h pi): 94 ± 3
- tumor-to-bone ratio ([3]; 3 h pi): 114 ± 29
- tumor-to-kidney ratio ([3]; 3 h pi): 1.9 ± 0.3
- tumor-to-liver ratio ([3]; 3 h pi): 48 ± 5
- tumor-to-lung ratio ([3]; 3 h pi): 52 ± 8
- tumor-to-muscle ratio ([3]; 3 h pi): 284 ± 19
- tumor-to-pancreas ratio ([3]; 3 h pi): 135 ± 11
- tumor-to-salivary gland ratio ([3]; 3 h pi): 31 ± 3
- tumor-to-small intestines ratio ([3]; 3 h pi): 126 ± 57
- tumor-to-spleen ratio ([3]; 3 h pi): 16 ± 4
- tumor-to-stomach ratio ([3]; 3 h pi): 24 ± 2
- Log D (octanol–water distribution coefficient) [4]: −2.5 ± 0.1
- B max1 (binding maximum) [5]: 947 CPS
- Kd ([5]; read-out: K D1): 0.089 nM
- Kd ([1]; PC3-pip, ref 15 (inferred, reference cell empty)): 0.033 nM
